Measurements published in patent US12649751B2 (Arcus Biosciences, Inc., priority 2022, dated 2026).
Read-outs that look alike come from different tables or passages of the source.

Experiments:
[1] = target: HPK1 (Homo sapiens, UniProt Q92918); test: HPK1 Biochemical Assay (ADP-Glo luminescence; low ATP 10 μM or high ATP 200 μM)
[2] = tested on: p-SLP-76 (Ser376) in Jurkat cells; test: pSLP76 Cellular Assay (AlphaLISA SureFire Ultra p-SLP-76 (Ser376), anti-CD3 activated Jurkat cells); format: cell-based; conditions: Homo sapiens, read-out: Cellular Potency
Outline: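 Jurkat cells, serum-starved overnight in Opti-MEM then in HBSS, preincubated 1 h at 37 °C with 22-point 2-fold compound dilutions, then stimulated with anti-CD3 (0.025 mg/ml added solution) for 45 min. Lysate p-SLP-76 (Ser376) measured by AlphaLISA at 570 nm; IC50 from 4-parameter logistic fit.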

[3] = HPK1 ADP-Glo assay, high ATP (200 μM ATP, 5 nM HPK1), read-out: Biochemical Potency (high ATP)
[4] = HPK1 ADP-Glo assay, low ATP (10 μM ATP, 2 nM HPK1), read-out: Biochemical Potency (low ATP)
[5] = pSLP76 (Ser376) AlphaLISA, anti-CD3 activated Jurkat cells
[6] = 2 nM HPK1, 10 μM ATP, read-out: Biochemical Potency (low ATP)
[7] = Jurkat cells, anti-CD3 stimulation, pSLP76

HPK1, sequence (Q92918 whole entry, species assumed): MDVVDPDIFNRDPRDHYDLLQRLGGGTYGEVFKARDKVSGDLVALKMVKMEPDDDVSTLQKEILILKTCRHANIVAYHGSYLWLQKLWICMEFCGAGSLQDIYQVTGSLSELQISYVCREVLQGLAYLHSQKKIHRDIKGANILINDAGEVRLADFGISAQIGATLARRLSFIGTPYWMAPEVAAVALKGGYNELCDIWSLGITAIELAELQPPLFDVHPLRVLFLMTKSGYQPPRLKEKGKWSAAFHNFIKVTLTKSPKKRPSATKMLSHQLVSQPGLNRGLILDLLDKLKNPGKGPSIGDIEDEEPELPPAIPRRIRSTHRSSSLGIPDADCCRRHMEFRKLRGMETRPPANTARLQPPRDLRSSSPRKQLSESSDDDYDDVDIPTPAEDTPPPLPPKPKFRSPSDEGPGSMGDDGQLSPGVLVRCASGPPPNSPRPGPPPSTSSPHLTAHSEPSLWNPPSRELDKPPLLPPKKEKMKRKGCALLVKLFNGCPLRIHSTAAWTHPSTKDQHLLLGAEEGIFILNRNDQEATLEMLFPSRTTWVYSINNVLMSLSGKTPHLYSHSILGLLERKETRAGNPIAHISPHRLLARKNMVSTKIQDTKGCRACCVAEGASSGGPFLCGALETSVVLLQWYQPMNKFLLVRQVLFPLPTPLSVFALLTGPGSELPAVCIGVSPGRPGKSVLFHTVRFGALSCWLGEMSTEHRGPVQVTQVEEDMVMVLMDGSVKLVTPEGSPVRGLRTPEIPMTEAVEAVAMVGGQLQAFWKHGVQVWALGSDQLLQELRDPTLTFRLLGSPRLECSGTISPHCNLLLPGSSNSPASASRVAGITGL

IC50 [1, 3] [µM]	IC50 [1, 4] [µM]	IC50 [2, 5] [µM]	IC50 [1, 6] [µM]	IC50 [2, 7] [µM]	SMILES
< 0.1	< 0.1	< 0.1			CN1C[C@@H]2C[C@H]1CN2c1nc(Nc2cc3nc(-c4cccc(C(C)(C)O)c4)sc3cn2)cc(C2CCOCC2)n1 [Example 440]
< 0.1		0.1 to 1			Cc1cc(Nc2cc3nc(-c4cccc(N5CCOCC5)c4)sc3cn2)nc(N2C[C@@H]3C[C@H]2CN3CCO)n1 [Example 349]
			< 0.1	1 to 5	FC(F)n1cc(-c2nc3cc(Nc4ccc(C5CCOCC5)c(CN5CCCC5)n4)ncc3s2)cn1 [Example 224, N-{2-[1-(Difluoromethyl)-1H-pyrazol-4-yl]-[1,3]thiazolo[5,4-c]pyridin-6-yl}-5-(oxan-4-yl)-6-[(pyrrolidin-1-yl)methyl]pyridin-2-amine]
< 0.1		< 0.1			Cc1cc(Nc2cc3nc(-c4cnn(C5CC5)c4)sc3cn2)nc(N2C[C@@H]3C[C@H]2CN3CC2CC2)n1 [Example 364]
			< 0.1	0.1 to 1	Cc1ccc(Nc2cc3nc(-c4cnn(CCC(N)=O)c4)sc3cn2)nc1CN1CCCC1 [Example 37, 3-{4-[6-({5-Methyl-6-[(pyrrolidin-1-yl)methyl]pyridin-2-yl}amino)-[1,3]thiazolo[5,4-c]pyridin-2-yl]-1H-pyrazol-1-yl}propanamide]
			< 0.1	0.1 to 1	Cc1cccc(F)c1-c1nc2cc(Nc3ccc(N4CCC(O)CC4)c(CN(C)C)n3)ncc2s1 [Example 18, 1-{2-[(Dimethylamino)methyl]-6-{[2-(2-fluoro-6-methylphenyl)-[1,3]thiazolo[5,4-c]pyridin-6-yl]amino}pyridin-3-yl}piperidin-4-ol]
	< 0.1	< 0.1			Cc1cccnc1-c1nc2cc(Nc3cc(C4CCOCC4)nc(N4C[C@@H]5C[C@H]4CN5)n3)ncc2s1 [Example 444]
			< 0.1	1 to 5	Cc1ccc(Nc2cc3nc(-c4c(F)cccc4F)sc3cn2)nc1CN(C)C [Example 46, N-[2-(2,6-Difluorophenyl)-[1,3]thiazolo[5,4-c]pyridin-6-yl]-6-[(dimethylamino)methyl]-5-methylpyridin-2-amine]
	< 0.1	5 to 25			Cc1c(N)cncc1-c1nc2cc(Nc3ccc4c(c3)CCC(N3CCCC3)CC4)ncc2s1 (stereo not drawn) [Example 330]
			< 0.1	1 to 5	Cc1cccnc1-c1nc2cc(Nc3cccc(N4CCNC5CC54)n3)ncc2s1 (stereo not drawn) [Example 87, 6-{2,5-Diazabicyclo[4.1.0]heptan-2-yl}-N-[2-(3-methylpyridin-2-yl)-[1,3]thiazolo[5,4-c]pyridin-6-yl]pyridin-2-amine]
			< 0.1	0.1 to 1	CN1C[C@@H]2C[C@H]1CN2c1cccc(Nc2cc3nc(-c4cccc(C(=O)N5CCCC5)c4)sc3cn2)n1 [Example 130, 6-[(1S,4S)-5-Methyl-2,5-diazabicyclo[2.2.1]heptan-2-yl]-N-{2-[3-(pyrrolidine-1-carbonyl)phenyl]-[1,3]thiazolo[5,4-c]pyridin-6-yl}pyridin-2-amine]
< 0.1		< 0.1			Cc1cc(Nc2cc3nc(-c4cccc(S(=O)(=O)N5CCCC5)c4)sc3cn2)nc(N2C[C@@H]3C[C@H]2CN3CCO)n1 [Example 344]
			< 0.1	0.1 to 1	Cc1cccnc1-c1nc2cc(Nc3ccc(C)c(N4C[C@@H](N)C[C@H]4CO)n3)ncc2s1 [Example 65, [(2S,4S)-4-Amino-1-(3-methyl-6-{[2-(3-methylpyridin-2-yl)-[1,3]thiazolo[5,4-c]pyridin-6-yl]amino}pyridin-2-yl)pyrrolidin-2-yl]methanol]
< 0.1		< 0.1			CCN1C[C@@H]2C[C@H]1CN2c1nc(C)cc(Nc2cc3nc(-c4cc(C(=O)N(C)C)cc(C5CC5)c4)sc3cn2)n1 [Example 536]
			< 0.1	0.1 to 1	CN1C[C@@H]2C[C@H]1CN2c1cccc(Nc2cc3nc(-c4cccnc4)sc3cn2)n1 [Example 89, 6-[(1S,4S)-5-Methyl-2,5-diazabicyclo[2.2.1]heptan-2-yl]-N-[2-(pyridin-3-yl)-[1,3]thiazolo[5,4-c]pyridin-6-yl]pyridin-2-amine]
< 0.1		0.1 to 1			CCN1C[C@@H]2C[C@H]1CN2c1nc(C)cc(Nc2cc3nc(-c4cncc(N[C@H](C)c5ccccc5)c4)sc3cn2)n1 [Example 471]
			< 0.1	1 to 5	Cc1cccc(F)c1-c1nc2cc(Nc3ccc(N4CCOCC4)c(CN4CCCC4)n3)ncc2s1 [Example 16, N-[2-(2-Fluoro-6-methylphenyl)-[1,3]thiazolo[5,4-c]pyridin-6-yl]-5-(morpholin-4-yl)-6-[(pyrrolidin-1-yl)methyl]pyridin-2-amine]
< 0.1		0.1 to 1			Cc1cc(Nc2cc3nc(-c4cccc(C(=O)N(C)C)c4)sc3cn2)nc(N2C[C@@H]3C[C@H]2CN3CCOC(C)C)n1 [Example 492]
			< 0.1	0.1 to 1	Cc1ccncc1-c1nc2cc(Nc3cccc(N4C[C@@H]5C[C@H]4CN5C)n3)ncc2s1 [Example 139, 6-[(1S,4S)-5-Methyl-2,5-diazabicyclo[2.2.1]heptan-2-yl]-N-[2-(4-methylpyridin-3-yl)-[1,3]thiazolo[5,4-c]pyridin-6-yl]pyridin-2-amine]
	< 0.1	< 0.1			Cc1cccnc1-c1nc2cc(Nc3ccc(C4CCOCC4)c(N4C[C@@H]5C[C@H]4CN5)n3)ncc2s1 [Example 432]
< 0.1		0.1 to 1			Cc1cc(Nc2cc3nc(-c4cnn(CS(C)(=O)=O)c4)sc3cn2)nc(N2C[C@@H]3C[C@H]2CN3CCO)n1 [Example 369]
< 0.1		0.1 to 1			Cc1cc(Nc2cc3nc(-c4cnn(C(C)(C)C#N)c4)sc3cn2)nc(N2C[C@@H]3C[C@H]2CN3CCO)n1 [Example 355]
< 0.1		0.1 to 1			Cc1cc(Nc2cc3nc(-c4cnn(C)c4C#N)sc3cn2)nc(N2C[C@@H]3C[C@H]2CN3C)n1 [Example 366]
< 0.1		0.1 to 1			CCN1C[C@@H]2C[C@H]1CN2c1nc(C)cc(Nc2cc3nc(-c4cccc(S(=O)(=O)N5CCCC5)c4)sc3cn2)n1 [Example 341]
			< 0.1	1 to 5	Fc1cccc(F)c1-c1nc2cc(Nc3ccc(N4CCOCC4)c(CN4CCCC4)n3)ncc2s1 [Example 17, N-[2-(2,6-Difluorophenyl)-[1,3]thiazolo[5,4-c]pyridin-6-yl]-5-(morpholin-4-yl)-6-[(pyrrolidin-1-yl)methyl]pyridin-2-amine]
			< 0.1	0.1 to 1	Cc1cc(Nc2cc3nc(-c4c(F)cccc4F)sc3cn2)nc(O[C@H]2CCNC2)c1 [Example 175, N-[2-(2,6-Difluorophenyl)-[1,3]thiazolo[5,4-c]pyridin-6-yl]-4-methyl-6-[(3S)-pyrrolidin-3-yloxy]pyridin-2-amine]
< 0.1		0.1 to 1			Cc1cc(Nc2cc3nc(-c4cnn5c4CNCC5)sc3cn2)nc(N2C[C@@H]3C[C@H]2CN3C)n1 [Example 575]
< 0.1		0.1 to 1			CCN1C[C@@H]2C[C@H]1CN2c1nc(C)cc(Nc2cc3nc(-c4cccc(C(=O)N[C@H](C)c5ccccc5)c4)sc3cn2)n1 [Example 516]
